# Laboratory results as given in US11723361B2, “Antimicrobial composition having efficacy against endospores” (Next Science IP Holdings Pty Ltd, priority 2015, dated 2023).
# Test: Peracetic acid titrations (pH)
# Assay type: physicochemical
# Method: Two peracetic acid solutions were prepared by adding distilled water to a flask containing peracetic acid. The concentration of one of the solutions was 5% (w/v) while that of the other was 10% (w/v). The calculated effective solute concentrations for these solutions were 1.97 and 3.95 Osm/L, respectively.
# To a 50 mL beaker was added 20 mL distilled water. A cleaned, rinsed and dried probe from a calibrated, temperature compensating pH meter was lowered into the beaker. Sequential aliquots of the peracetic acid solution then were added to the beaker, with pH readings after each. The titrations were performed at room temperature.
smiles,measurement,setting,value
"CC(=O)OO [Peracetic acid, peracetic acid]",pH of water after addition,1 mL (5% by volume) of either 5% or 10% (w/v) solution,below 2
same,pH,"5% (w/v) solution, 0.25 mL added to 20 mL distilled water, room temperature",2.42
same,pH,"5% (w/v) solution, 0.50 mL added to 20 mL distilled water, room temperature",2.17
same,pH,"5% (w/v) solution, 0.75 mL added to 20 mL distilled water, room temperature",2.00
same,pH,"5% (w/v) solution, 1.00 mL added to 20 mL distilled water, room temperature",1.89
same,pH,"5% (w/v) solution, 1.25 mL added to 20 mL distilled water, room temperature",1.80
same,pH,"5% (w/v) solution, 1.50 mL added to 20 mL distilled water, room temperature",1.74
same,pH,"5% (w/v) solution, 1.75 mL added to 20 mL distilled water, room temperature",1.68
same,pH,"5% (w/v) solution, 2.00 mL added to 20 mL distilled water, room temperature",1.59
same,pH,"5% (w/v) solution, 2.25 mL added to 20 mL distilled water, room temperature",1.56
same,pH,"5% (w/v) solution, 2.50 mL added to 20 mL distilled water, room temperature",1.53
same,pH,"5% (w/v) solution, 2.75 mL added to 20 mL distilled water, room temperature",1.48
same,pH,"5% (w/v) solution, 3.00 mL added to 20 mL distilled water, room temperature",1.45
same,pH,"5% (w/v) solution, 3.25 mL added to 20 mL distilled water, room temperature",1.42
same,pH,"5% (w/v) solution, 3.50 mL added to 20 mL distilled water, room temperature",1.41
same,pH,"5% (w/v) solution, 3.75 mL added to 20 mL distilled water, room temperature",1.38
same,pH,"5% (w/v) solution, 4.00 mL added to 20 mL distilled water, room temperature",1.34
same,pH,"5% (w/v) solution, 4.25 mL added to 20 mL distilled water, room temperature",1.30
same,pH,"5% (w/v) solution, 4.50 mL added to 20 mL distilled water, room temperature",1.28
same,pH,"5% (w/v) solution, 4.75 mL added to 20 mL distilled water, room temperature",1.26
same,pH,"5% (w/v) solution, 5.00 mL added to 20 mL distilled water, room temperature",1.25
same,pH,"10% (w/v) solution, 0.1 mL added to 20 mL distilled water, room temperature",2.74
same,pH,"10% (w/v) solution, 0.2 mL added to 20 mL distilled water, room temperature",2.48
same,pH,"10% (w/v) solution, 0.3 mL added to 20 mL distilled water, room temperature",2.33
same,pH,"10% (w/v) solution, 0.4 mL added to 20 mL distilled water, room temperature",2.22
same,pH,"10% (w/v) solution, 0.5 mL added to 20 mL distilled water, room temperature",2.14
same,pH,"10% (w/v) solution, 0.6 mL added to 20 mL distilled water, room temperature",2.07
same,pH,"10% (w/v) solution, 0.7 mL added to 20 mL distilled water, room temperature",2.00
same,pH,"10% (w/v) solution, 0.8 mL added to 20 mL distilled water, room temperature",1.95
same,pH,"10% (w/v) solution, 0.9 mL added to 20 mL distilled water, room temperature",1.91
same,pH,"10% (w/v) solution, 1.0 mL added to 20 mL distilled water, room temperature",1.86
same,pH,"10% (w/v) solution, 1.1 mL added to 20 mL distilled water, room temperature",1.83
same,pH,"10% (w/v) solution, 1.2 mL added to 20 mL distilled water, room temperature",1.79
same,pH,"10% (w/v) solution, 1.3 mL added to 20 mL distilled water, room temperature",1.76
same,pH,"10% (w/v) solution, 1.4 mL added to 20 mL distilled water, room temperature",1.73
same,pH,"10% (w/v) solution, 1.5 mL added to 20 mL distilled water, room temperature",1.70
same,pH,"10% (w/v) solution, 1.6 mL added to 20 mL distilled water, room temperature",1.67
same,pH,"10% (w/v) solution, 1.7 mL added to 20 mL distilled water, room temperature",1.65
same,pH,"10% (w/v) solution, 1.8 mL added to 20 mL distilled water, room temperature",1.62
same,pH,"10% (w/v) solution, 1.9 mL added to 20 mL distilled water, room temperature",1.60
same,pH,"10% (w/v) solution, 2.0 mL added to 20 mL distilled water, room temperature",1.58
same,asymptotic pH,either 5% or 10% (w/v) acid solution,~1.1±0.1
same,pH,"solutions of at least 2.5% (w/v), according to the tabulated data",no more than 1.25
same,pH of water after addition,"tiny aliquot, less than 1% by volume, of either 5% or 10% (w/v) solution",below 3
